Series [1] can be described thus: in vitro. The following applies: Saccharomyces cerevisiae; for viability: Cytotoxicity (% survival). From the text: (§1) The RS112 yeast DEL assay tester strain of Saccharomyces cerevisiae contains a plasmid with an internal fragment of the HIS3 gene integrated at the genomic HIS3 locus, yielding an integrative disruption of the HIS3 gene. This disruption results in two copies of the HIS3 gene, each copy having one terminal deletion. Recombination between the two his3 deletion alleles results in reversion to HIS3^+ and growth in the absence of histidine. This recombination event leads to a 6 kb DNA deletion comprising the integrated plasmid leading to deletion (DEL) events. The assay utilizing DEL events involves overnight growth of a single colony of the RS112 strain and subsequent subculture with the presence or absence of the chemical being tested for 17 hours at 30° C. under constant shaking. Yeast are then plated onto SC medium to determine the number of survivors (individual colonies are counted) and onto SC-HIS medium to score for DEL events. The traditional DEL assay is very powerful if one is testing a limited number of chemicals but becomes impractical for screening large numbers of chemicals and chemical libraries.
(§2) For 384-well plate format, 1 μl of yeast (˜100,000 cells) was pipetted into 8 microplate wells for each compound, four of which containing 70 μl SC media and four containing 70 μl SC-HIS media; each well was supplemented with 14 μl of MTS and 5 μl of compound. For 96-well plate format, the above was consistent except media, MTS, and compound volumes were 100 μl, 20 μl, and 7 μl, respectively. Control wells were treated with water in lieu of compound. The outermost columns of the 96-well plate and outer two columns of each 384-well plate were excluded from experimentation lest edge evaporative effects alter the data. Plates were incubated at 30° C. at normal atmosphere during which yeast were grown in the presence of the tested compound and 490 nm absorbance was measured 10-18 hr later using a Molecular Devices SpectraMax M5 microplate reader (Sunnyvale, Calif.).
(§3) Survival for a given compound treatment was quantified by averaging the absorbance across the four treated wells in SC media and dividing that by the average absorbance of control wells. DEL induction was quantified by dividing the absorbance of each SC-HIS well by the corresponding paired SC well. Thus for each compound done in quadruplicate, each plate contains a set of 4 different measurements of DEL induction. For each compound, ratio of the average DEL induction in treated versus control cultures was taken as the fold-increase in DEL events (HIS^+ growth). A Student's t-test was performed on the 4 measurements of DEL induction and the same measurements recorded from control wells to determine significance of the fold-increase. It should be noted that this value of fold-increase is analyzed statistically for significance and not absolute; thus two different chemicals may have the same fold-increase but varying levels of significance. In plots and tables, data from a single experiment performed in quadruplicate is presented; all experiments were repeated independently in at least 3 separate experiments in both 96 and 384-well plate formats.

In series [2] the test system is S. cerevisiae strain RS112. Nature of the series: well-based DEL assay (MTS colorimetric, 96/384-well): genotoxicity and cytotoxicity. The following applies: for DEL events (DNA deletions) induced by crosslinking agents: well-based DEL assay; for DNA deletion potential (DEL events) of solvent alone: compared to control treated yeast.
From the text: as §1, §2, §3

Setting [3] is: S. cerevisiae strain RS112 (diploid yeast cells).
Where [4] appears, read: concentrations as low as 1 μM (~0.3 μg/ml).

Molecules are shown by their SMILES. Where two headings read alike, the source gives them in different places. Numbered stars: 1 amine (or outer) side, 2 acyl side, 3 side chain; on linkers, the order of the positions; unused ones are H or OH. Bridge positions count the residues as written; N and C are the ends. Square brackets hold non-standard residues; d marks the D form. Peptide text beside a SMILES is read from it. I, II: the chains in the order shown. Actinocin(9to1) = Cc1c2oc3c(C)ccc(C(=O)[*:1])c3nc-2c(C(=O)[*:2])c(N)c1=O; NMeV = CN[C@H](C(=O)O)C(C)C; Sar = CNCC(=O)O

From patent publication US9193983B2, “Assays for mutagenesis detection” (The Regents of the University of California, priority 2007, dated 2015) come the findings set out here.

Usually viability stands for a per cent measure of how many cells are alive, often set against a control.

In the case of `O=NN(CCCl)C(=O)NCCCl` [Carmustine, carmustine], the viability in series [1] (10 μM final in well) stood at 91.8%; in series [1] (30 μM final in well) it was 29.5%; in series [1] (50 μM final in well), 10.7%. Besides, the cytotoxic effects entry in series [2] is “more pronounced genotoxic and cytotoxic effects”. Moreover, the DEL significance entry is “* (* (p < 0.05))” in series [2] (10 μM final in well), “*** (*** (p < 0.005))” in series [2] (30 μM final in well) and “*** (*** (p < 0.005))” in series [2] (50 μM final in well). Besides, the “DEL events (DNA deletions) induced by crosslinking agents” value in series [2] is reported as “significant increase in DEL events”.
As to `c1ccccc1` [Benzene, benzene], in series [1], the viability at 0.25 mg/ml was determined as 96% and the viability at 0.4 mg/ml was found to be 83.7%. Further, in series [2] (0.25 mg/ml final in well), the Cytotoxicity significance result is listed as “ns (ns—not significant (p > 0.05))”, the “DEL (fold increase)” value was found to be 1.77 fold and the DEL significance entry is “*** (*** (p < 0.005))”. Besides, in series [2] (0.40 mg/ml final in well), the Cytotoxicity significance result was “** (** (p < 0.01))”, the “DEL (fold increase)” value is on record as 2.31 fold and the DEL significance entry was “*** (*** (p < 0.005))”. Further, the DEL induction result in series [2] (0.25 and 0.40 mg/ml) is recorded as “significant DEL induction”.
As to `CC(C)=O` [Acetone, acetone], in series [2] (0.4% (solvent tested alone)), the “DEL (fold increase)” value turned out to be 0.96 fold and the DEL significance result is on record as “ns (ns—not significant (p > 0.05))”. The “DNA deletion potential (DEL events) of solvent alone” value in series [2] is on record as “neither solvents generated any differentiable response”.
For the molecule `CC[C@@]1(O)C(=O)OCc2c1cc1n(c2=O)Cc2cc3ccccc3nc2-1` [Camptothecin, camptothecin], in series [1] (setting [3]), the viability at 5 μM was determined as 86.1%, the viability at 15 μM turned out to be 93.1%, the viability at 25 μM turned out to be 95.7% and the viability at 40 μM came to 85.6%. Also, in series [2] (5 μM final in well), the Cytotoxicity significance result is “*** (*** (p < 0.005))”, the “DEL (fold increase)” value came out at 1.28 fold and the DEL significance entry is “** (** (p < 0.01))”. For the same molecule, in series [2] (15 μM final in well), the Cytotoxicity significance result is given as “* (* (p < 0.05))”, the “DEL (fold increase)” value came to 1.53 fold and the DEL significance result is on record as “*** (*** (p < 0.005))”. In series [2] (25 μM final in well), the Cytotoxicity significance result was “* (* (p < 0.05))”, the “DEL (fold increase)” value turned out to be 1.57 fold and the DEL significance entry is “*** (*** (p < 0.005))”. Moreover, in series [2] (40 μM final in well), the Cytotoxicity significance entry is “*** (*** (p < 0.005))”, the “DEL (fold increase)” value amounted to 1.77 fold and the DEL significance entry is given as “*** (*** (p < 0.005))”. In addition, the cytotoxicity entry in series [2] (each concentration 5-40 μM) is given as “various degrees of cytotoxicity”. The “genotoxicity (growth in −HIS media)” value in series [2] (each concentration 5-40 μM (1.7-13.9 μg/ml)) is “significant genotoxicity”.
With `CCOS(C)(=O)=O` [EMS, ethyl methanesulfonate], in series [1] (setting [3]), the viability at 2 μg/ml came to 38.2%, the viability at 5 μg/ml worked out at 8.36% and the viability at 10 μg/ml stood at 6.7%. For the same molecule, in series [2] (2 μg/ml final in well), the Cytotoxicity significance result was “*** (*** (p < 0.005))”, the “DEL (fold increase)” value is listed as 1.59 fold and the DEL significance result is recorded as “*** (*** (p < 0.005))”. Also, in series [2] (5 μg/ml final in well), the Cytotoxicity significance result is recorded as “*** (*** (p < 0.005))”, the “DEL (fold increase)” value was 3.19 fold and the DEL significance result is recorded as “*** (*** (p < 0.005))”. Also, in series [2] (10 μg/ml final in well), the Cytotoxicity significance entry is listed as “*** (*** (p < 0.005))”, the “DEL (fold increase)” value came to 2.65 fold and the DEL significance result is “*** (*** (p < 0.005))”. For the same molecule, in series [2] (2, 5 and 10 μg/ml), the “growth in +13 media (cytotoxicity)” value is recorded as “diminished growth in +13 media” and the “growth in −HIS media (genotoxicity)” value is given as “increased growth in −HIS media”.
For `O=C(O)CCCc1ccc(N(CCCl)CCCl)cc1` [Chlorambucil, chlorambucil], in series [1], the viability at 1 μM came to 82.4%, the viability at 10 μM was found to be 35.7% and the viability at 30 μM amounted to 20.5%. Further, in series [2] (1 μM final in well), the Cytotoxicity significance entry is “** (** (p < 0.01))”, the “DEL (fold increase)” value is 1.18 fold and the DEL significance entry is given as “* (* (p < 0.05))”. In series [2] (10 μM final in well), the Cytotoxicity significance result is recorded as “*** (*** (p < 0.005))”, the “DEL (fold increase)” value is 2.37 fold and the DEL significance entry was “*** (*** (p < 0.005))”. Moreover, in series [2] (30 μM final in well), the Cytotoxicity significance entry is “*** (*** (p < 0.005))”, the “DEL (fold increase)” value amounted to 3.58 fold and the DEL significance entry was “*** (*** (p < 0.005))”. In series [2] (setting [4]), the cytotoxicity entry was “significant genotoxicity and cytotoxicity”; the genotoxicity result is “significant genotoxicity and cytotoxicity”. Moreover, the “DEL events (DNA deletions) induced by crosslinking agents” value in series [2] is given as “significant increase in DEL events”.
Regarding `COS(C)(=O)=O` [MMS, methylmethane sulfonate], in series [1] (setting [3]), the viability at 10 nM was found to be 81.2%, the viability at 100 nM turned out to be 74.8%, the viability at 500 nM came to 38.6% and the viability at 1000 nM was found to be 20.3%. Further, in series [2] (10 nM final in well), the Cytotoxicity significance result was “*** (*** (p < 0.005))”, the “DEL (fold increase)” value came out at 1.54 fold and the DEL significance entry was “** (** (p < 0.01))”. In series [2] (100 nM final in well), the Cytotoxicity significance result is “*** (*** (p < 0.005))”, the “DEL (fold increase)” value is 1.68 fold and the DEL significance entry is “*** (*** (p < 0.005))”. In addition, in series [2] (500 nM final in well), the Cytotoxicity significance entry was “*** (*** (p < 0.005))”, the “DEL (fold increase)” value was determined as 2.16 fold and the DEL significance result was “*** (*** (p < 0.005))”. In series [2] (1000 nM final in well), the Cytotoxicity significance result is “*** (*** (p < 0.005))”, the “DEL (fold increase)” value worked out at 3.09 fold and the DEL significance result is recorded as “*** (*** (p < 0.005))”. The cytotoxicity entry in series [2] (each concentration between 10-1000 nM) is “increasingly significantly cytotoxic”. Also, the DEL fold-increase result in series [2] (lowest dose tested of 10 nM (0.0011 μg/ml)) is reported as “significant increase in DEL fold-increase”.
For `Cc1c2oc3c(C)ccc(C(=O)N[C@@H]4C(=O)N[C@H](C(C)C)C(=O)N5CCC[C@H]5C(=O)N(C)CC(=O)N(C)[C@@H](C(C)C)C(=O)O[C@@H]4C)c3nc-2c(C(=O)N[C@@H]2C(=O)N[C@H](C(C)C)C(=O)N3CCC[C@H]3C(=O)N(C)CC(=O)N(C)[C@@H](C(C)C)C(=O)O[C@@H]2C)c(N)c1=O` [ActD, actinomycin D] (I: T[dV]P[Sar][NMeV] / II: T[dV]P[Sar][NMeV]; ester I:1-I:C, II:1-II:C; linker I:N-II:N via Actinocin(9to1)), in series [2], the Cytotoxicity significance result is listed as “** (key: * (p < 0.05); ** (p < 0.01); *** (p < 0.005); ns—not significant (p > 0.05))”, the DEL fold-increase entry is “significant DEL fold-increase” and the cytotoxicity result is recorded as “slight cytotoxicity”. Besides, in series [2] (5 μM final in well), the “Cytotoxicity (% survival)” value is on record as 112.0%, the “DEL (fold increase)” value was 0.89 fold and the DEL significance entry is “ns (ns—not significant (p > 0.05))”. For the same molecule, in series [2] (10 μM final in well), the “Cytotoxicity (% survival)” value amounted to 110.2%, the “DEL (fold increase)” value was 0.96 fold and the DEL significance result is listed as “ns (ns—not significant (p > 0.05))”. Besides, in series [2] (20 μM final in well), the “Cytotoxicity (% survival)” value was determined as 86.3%, the “DEL (fold increase)” value is 1.26 fold and the DEL significance result is reported as “** (** (p < 0.01))”.
For `C[S+](C)[O-]` [DMSO, dimethyl sulfoxide], in series [2] (1% (solvent tested alone)), the “DEL (fold increase)” value was 0.96 fold and the DEL significance result was “ns (ns—not significant (p > 0.05))”. Besides, in series [2], the “DNA deletion potential (DEL events) of solvent alone” value was “neither solvents generated any differentiable response”.
On to `O=[N+]([O-])c1cc[n+]([O-])c2ccccc12` [4NQO, 4-nitroquinoline-1-oxide], for which the viability in series [1] (0.08 μg/ml final in well) was 20.3%; in series [1] (0.2 μg/ml final in well) it was 11.7%; in series [1] (1 μg/ml final in well), 13.5%.
